This is an account of results in US8299100B2, “Potent and selective neuronal nitric oxide synthase inhibitors with improved membrane permeability” (Northwestern University, priority 2009, dated 2012).

Where two headings read alike, the source gives them in different places.

For one data set, the target named is bovine eNOS (Bos taurus, UniProt P29473). Briefly: NOS hemoglobin capture assay, purified recombinant enzyme (eNOS). As to conditions: for selectivity n/e: ratio of Ki (eNOS) to Ki (nNOS).
The target of a further data set is nNOS (Rattus norvegicus, UniProt P29476). Kind of data set: cell-based assay of inhibitor potency (membrane permeability). As to conditions: for IC50: Table 3, cell-based assay; for increase in cell membrane permeation: relative to 1, from IC50/IC50(cell).
The next data set concerns the target murine macrophage iNOS (Mus musculus, UniProt P29477). Kind of data set: NOS hemoglobin capture assay, purified recombinant enzyme (iNOS). As to conditions: for selectivity n/i: ratio of Ki (iNOS) to Ki (nNOS).
The next data set addresses rat nNOS (Rattus norvegicus, UniProt P29476). Kind of data set: NOS hemoglobin capture assay, purified recombinant enzyme (nNOS).
The mark [1] stands for this setting: read-out: Ki nNOS, Table 4, Ki calculated from measured IC50, 10 μM L-arginine.

Protocol for bovine eNOS: (§1) The three isozymes were recombinant enzymes, which were overexpressed (in E. coli) and isolated as reported. The formation of nitric oxide was measured using a hemoglobin capture assay described previously.
(§2) The three isozymes were recombinant enzymes, which were overexpressed (in E. coli) and isolated as reported. The formation of nitric oxide was measured using a hemoglobin capture assay described previously. […] The corresponding Ki values of inhibitors were calculated from the IC50 values using equation 1 with known Km values, as above.
Protocol for murine macrophage iNOS: as §1, §2
Protocol for rat nNOS: as §1, §2

As for `Cc1cc(N)nc(CC2CNCC2OCCNC2CC2c2cccc(F)c2)c1` [Compound 2b, 6-(((3S,4S)/(3R,4R)-4-(2-(2-(3-Fluorophenyl)cyclopropylamino)ethoxy)pyrrolidin-3-yl)methyl)-4-methylpyridin-2-amine], the Ki was 68 µM at bovine eNOS, 11 µM at murine macrophage iNOS and 0.046 µM on rat nNOS. The selectivity n/e on bovine eNOS (Table 2) came to 1500. The figures for the half-maximal inhibitory concentration (IC50) on nNOS and on rat nNOS were 9 µM and 0.4 µM, respectively. Moreover, the “IC50/IC50(cell) × 10^−2” value at nNOS (ratio of purified nNOS IC50 to cell-based IC50, indicates relative membrane permeability) is given as 4.4 × 10^−2. Besides, the “increase in cell membrane permeation” value at nNOS is listed as 2.4 fold. The selectivity n/i at murine macrophage iNOS (Table 2) was 220.

For `Cc1cc(N)nc(CC2CNCC2OCCNCC(F)c2cccc(F)c2)c1` [Compound 2c, 6-(((3S,4S)/(3R,4R)-4-(2-(2-Fluoro-2-(3-fluorophenyl)propylamino)ethoxy)pyrrolidin-3-yl)methyl)-4-methylpyridin-2-amine], at nNOS, the IC50 was 10 µM and the “increase in cell membrane permeation” value was determined as 1.7 fold.

Consider `Cc1cc(N)nc(CC2CNCC2OCCNCC(F)(F)c2cccc(F)c2)c1` [Compound 2d, 6-(((3S,4S)/(3R,4R)-4-(2-(2,2-Difluoro-2-(3-fluorophenypethylamino)ethoxy)pyrrolidin-3-yemethyl)-4-methylpyridin-2-amine], for which the 50% inhibitory concentration (IC50) on nNOS is 19 µM; at rat nNOS (Table 3, purified enzyme assay (nNOS)), 0.7 µM. The “increase in cell membrane permeation” value on nNOS amounted to 2.0 fold. The Ki at rat nNOS (read-out: Ki nNOS, Table 2, Ki calculated from measured IC50, 10 μM L-arginine) is 0.08 µM; on rat nNOS (setting [1]), 0.08 µM. In addition, on rat nNOS (relative to 2c), the “drop in potency (nNOS)” value is reported as 2.2 fold.

For `Cc1cc(N)nc(C[C@H]2CNC[C@H]2OCCNCC(F)(F)c2cccc(F)c2)c1` [Compound 2da], the inhibitory constant (Ki) on bovine eNOS turned out to be 110 µM; at murine macrophage iNOS it was 130 µM; at rat nNOS, 0.39 µM. Besides, the “loss of potency (nNOS)” value on rat nNOS (compared to racemic 2d) was “five-fold less potent”.

For the compound `Cc1cc(N)nc(C[C@@H]2CNC[C@@H]2OCCNCC(F)(F)c2cccc(F)c2)c1` [Compound 2db], the inhibition constant (Ki) is 140 µM on bovine eNOS, 51 µM on murine macrophage iNOS and 0.036 µM on rat nNOS. Also, the “lower Ki (nNOS)” value at rat nNOS (2db compared to 2da) is on record as 10 fold.

As for `Cc1cc(N)nc(C[C@@H]2CNC[C@@H]2OCCNCC(F)(F)c2ccc(F)cc2)c1` [Compound 2dc], the selectivity n/e on bovine eNOS (Table 4) is recorded as 190. Moreover, the inhibitory constant (Ki) on bovine eNOS (read-out: Ki eNOS, Table 4, Ki calculated from measured IC50, 10 μM L-arginine) was 31 µM; on murine macrophage iNOS (read-out: Ki iNOS, Table 4, Ki calculated from measured IC50, 10 μM L-arginine) it was 190 µM; at rat nNOS (setting [1]), 0.16 µM. On murine macrophage iNOS (Table 4), the selectivity n/i is reported as 1200. For the same compound, the “loss of potency (nNOS)” value on rat nNOS (compared to 2db) came to 4.5 fold.

Consider `Cc1cc(N)nc(C[C@@H]2CNC[C@@H]2OCCNCC(F)(F)c2ccccc2)c1` [Compound 2dd], for which the inhibitory constant (Ki) amounted to 85 µM on murine macrophage iNOS and 0.085 µM at rat nNOS.

For `CC1CC(N)=NC(C[C@@H]2CNC[C@@H]2OCCNCC(F)(F)c2ccccc2)C1` (stereo partly drawn) [Compound 2e], the inhibition constant Ki at bovine eNOS is 130 µM; on murine macrophage iNOS, 26 µM; on rat nNOS it was 0.17 µM. Moreover, the selectivity n/e on bovine eNOS (Table 4) came to 770. At murine macrophage iNOS (Table 4), the selectivity n/i is 150. For the same compound, the “better binding to iNOS” value on murine macrophage iNOS (compared to 2dd) is on record as “more than 3 fold”. In addition, the “drop in potency against nNOS” value at rat nNOS (compared to 2dd) is recorded as 2 fold.

For the compound `Cc1cc(N)nc(C[C@H]2CNC[C@H]2OCCNCC(F)(F)C2CCCCN2)c1` (stereo partly drawn) [Compound 2f], the Ki was found to be 64 µM at bovine eNOS, 450 µM at murine macrophage iNOS and 2.7 µM on rat nNOS. At bovine eNOS (Table 4), the selectivity n/e is listed as 24. In addition, the selectivity n/i on murine macrophage iNOS (Table 4) turned out to be 170.
